Experimental data reported in patent US20240109881A1, “Heteroaryl Compounds as Ligand Directed Degraders of IRAK4” (Bristol-Myers Squibb Company, priority 2022, published 2024).
pEC50: −log10 of the molar value.

Biological target: T1, IRAK4 (Homo sapiens, UniProt Q9NWZ3)
T1 construct: endogenous in cells; host or cells: THP-1 cells
T1 sequence (Q9NWZ3 1-460): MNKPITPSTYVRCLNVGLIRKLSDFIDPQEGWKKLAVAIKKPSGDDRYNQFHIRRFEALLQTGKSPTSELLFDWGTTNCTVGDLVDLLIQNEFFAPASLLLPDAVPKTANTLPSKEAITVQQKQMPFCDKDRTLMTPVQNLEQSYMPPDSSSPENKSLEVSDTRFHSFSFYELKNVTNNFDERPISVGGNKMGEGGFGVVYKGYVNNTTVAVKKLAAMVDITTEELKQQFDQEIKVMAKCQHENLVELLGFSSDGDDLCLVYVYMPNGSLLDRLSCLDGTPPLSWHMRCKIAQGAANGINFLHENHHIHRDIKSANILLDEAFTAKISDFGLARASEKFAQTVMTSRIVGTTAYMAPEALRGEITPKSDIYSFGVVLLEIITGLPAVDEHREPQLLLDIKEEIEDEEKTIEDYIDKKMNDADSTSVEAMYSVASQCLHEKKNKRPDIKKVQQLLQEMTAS
Experiment: ALE THP1 HTRF (Advanced Lipoxidation End Product THP1 Homogeneous Time Resolved Fluorescence)
Assay type: cell-based
Conditions: THP1 cells
Experimental: For Homogenous Time Resolved Fluorescence (HTRF) assays, a Cisbio HTRF kit was used, which included: Lysis Buffer #1 4×, Blocking Reagent #3 100×, 20× Antibody 1 (Anti-IRAK4 d2), 20× Antibody 2 (Anti-IRAK4 k), and Detection Buffer.
4× Lysis Buffer was stored at 4° C. For use as 1× Lysis buffer, the 4× solution was diluted with de-ionized water (distilled water, Gibco Cat. #15230279) and 100× Blocking Reagent in a 1:3:0.04 volume ratio.
20× Antibody Solution aliquots were stored in −80° C. and the Detection Buffer was stored in 4° C. For use as a 1× Antibody Solution, the 20× Antibody Solution aliquot was diluted with Detection Buffer in a 1:19 volume ratio.
Cells were lysed at room temperature for 45 min with shaking. A BCA protein assay was performed and normalization was conducted to the desired total protein concentration with 1× lysis buffer. Next, 1× Antibody Solutions were prepared by adding 380 μL Detection Buffer to 20 μL 20× Antibody Solution aliquots and mixing well. 1× Antibody Solutions were combined 1:1 and briefly vortexed. For control wells, 20 μL 1× anti IRAK4-k Antibody Solution was saved. The 384-well plate (ProxiPlate-384 Plus, Perkin Elmer Cat. #6008289) was loaded by adding 4 μL of the mixed Antibody Solution to empty wells using a single channel repeater. Using a multi-channel repeater, 16 μL lysate was added per well, and any bubbles that were formed were popped with 20 μL pipette tips and Kimwipe edges. In column 10, triplicates of each control was prepared. In wells A10, B10, and C10, buffer control was prepared by adding 16 μL Lysis Buffer and 4 μL Detection Buffer. In wells D10, E10, and F10, cryptate control was prepared by adding 16 μL Lysis Buffer, 2 μL Detection Buffer, and 2 μL 1× anti IRAK4-k Antibody Solution. In wells G10, H10, and I10, a negative control was prepared by adding 16 μL Lysis Buffer and 4 μL mixed Antibody Solution. The plate was sealed with a clear seal and covered with an aluminum lid. The plate was spun down at 800 g for 5 min and incubated in the dark at room temperature overnight. The next day, the plate was spun down at 800 g for 5 min. The samples were analyzed by a plate reader (Envision, PerkinElmer) using the Desnor 384 HTRF program.

Row | SMILES | ALE THP1 HTRF YMIN | pEC50
1 | N#Cc1cnc2c(cnn2-c2cc(NC3CC3)c(C(=O)N[C@H]3CC[C@H]([C@@H]4C[C@H]4N4CCN(c5ccc(C6CCC(=O)NC6=O)cc5)CC4)CC3)cn2)c1 (relative stereo) [P-111] | 15.6% | 7.62
2 | CC1(c2ccc(N3CCN(CCC4CCC(NC(=O)c5cnc(-n6ncc7cc(C#N)cnc76)cc5NC5CC5)CC4)CC3)cc2)CCC(=O)NC1=O (single isomer, unassigned) [P-94] | 7.4% | 7.96
3 | N#Cc1cnc2c(cnn2-c2cc(NC3CC3)c(C(=O)N[C@H]3CC[C@H](C4C[C@@H]4N4CCN(c5ccc(C6CCC(=O)NC6=O)cc5)CC4)CC3)cn2)c1 (single isomer, unassigned) [P-110] | 16.0% | 7.72
4 | N#Cc1cnc2c(cnn2-c2cc(NC3CC3)c(C(=O)N[C@H]3CC[C@H](CCN4CCC(c5ccc(C6(F)CCC(=O)NC6=O)cc5)CC4)CC3)cn2)c1 (single isomer, unassigned) [P-125] | 9.8% | 8.00
5 | N#Cc1cnc2c(cnn2-c2cc(NC3CC3)c(C(=O)N[C@H]3CC[C@H](CCN4CCC(c5ccc(C6(F)CCC(=O)NC6=O)cc5)CC4)CC3)cn2)c1 (single isomer, unassigned) [P-126] | 14.9% | 6.53
6 | C[C@H](C#N)Nc1cc(-n2ncc3cc(C#N)cnc32)ncc1C(=O)N[C@H]1CC[C@H](CCN2CCN(c3ccc(C4CCC(=O)NC4=O)cc3)CC2)CC1 (stereo in doubt) [P-128] | 14.7% | 7.33
7 | O=C1CCC(N2C(=O)c3ccc(N4CCN(C(=O)C5CCC(NC(=O)c6cnc(Nc7ccc8ncsc8c7)cc6NC6CCCC6)CC5)CC4)cc3C2=O)C(=O)N1 (stereo not shown) [P-2] | 32.7% | 7.01
8 | O=C1CCC(N2C(=O)c3ccc(N4CCN(C[C@H]5CC[C@H](NC(=O)c6cnc(Nc7ccc8ncsc8c7)cc6NC6CCCC6)CC5)CC4)cc3C2=O)C(=O)N1 (stereo partly shown) [P-3, 6-(1,3-benzothiazol-6-ylamino)-4-(cyclopentylamino)-N-[4-[[4-[2-(2,6-dioxo-3-piperidyl)-1,3-dioxo-isoindolin-5-yl]piperazin-1-yl]methyl]cyclohexyl]pyridine-3-carboxamide] | 35.6% | 6.56
9 | CS(=O)(=O)N1CCC(Nc2cc(Nc3ccc4ncsc4c3)ncc2C(=O)NC2CCC(C(=O)N3CCN(c4ccc5c(c4)C(=O)N(C4CCC(=O)NC4=O)C5=O)CC3)CC2)CC1 (stereo not shown) [P-4, 6-(1,3-benzothiazol-6-ylamino)-N-[4-[4-[2-(2,6-dioxo-3-piperidyl)-1,3-dioxo-isoindolin-5-yl]piperazine-1-carbonyl]cyclohexyl]-4-[(1-methylsulfonyl-4-piperidyl)amino]pyridine-3-carboxamide] | 35.8% | 7.33
10 | O=C1CCC(N2C(=O)c3ccc(N4CCC(C(=O)NC5CCC(n6cc(-c7cnc(Nc8ccc9ncsc9c8)cc7NC7CCCC7)nn6)CC5)CC4)cc3C2=O)C(=O)N1 (stereo not shown) [P-5] | 17.1% | 7.27
11 | N#Cc1cnc2c(ccn2-c2cc(NC3CCCC3)c(C(=O)NC3CCC(C(=O)N4CCN(c5ccc6c(c5)C(=O)N(C5CCC(=O)NC5=O)C6=O)CC4)CC3)cn2)c1 (stereo not shown) [P-6] | 30.4% | 7.74
12 | O=C1CCC(N2C(=O)c3ccc(N4CCN(C(=O)C5CCC(NC(=O)c6cnc(Nc7ccn8nccc8n7)cc6NC6CCCC6)CC5)CC4)cc3C2=O)C(=O)N1 (stereo not shown) [P-7] | 30.8% | 7.43
13 | C[C@H]1CN(c2ccc3c(c2)C(=O)N(C2CCC(=O)NC2=O)C3=O)CCN1C(=O)C1CCC(NC(=O)c2cnc(Nc3ccc4ncsc4c3)cc2NC2CCCC2)CC1 (stereo partly shown) [P-8] | 40.8% | 7.57
14 | O=C1CCC(N2C(=O)c3ccc(N4CCN(C(=O)[C@H]5CC[C@H](n6cc(-c7cnc(Nc8ccc9ncsc9c8)cc7NC7CCCC7)nn6)CC5)CC4)cc3C2=O)C(=O)N1 (stereo partly shown) [P-9] | 20.0% | 7.60
15 | N#Cc1cnc2c(cnn2-c2cc(NC3CCCC3)c(C(=O)NC3CCC(C(=O)N4CCN(c5ccc6c(c5)C(=O)N(C5CCC(=O)NC5=O)C6)CC4)CC3)cn2)c1 (stereo not shown) [P-10] | 34.8% | 7.06
16 | O=C1CCC(c2ccc(NCC3CCN(C(=O)C4CCC(NC(=O)c5cnc(Nc6ccc7ncsc7c6)cc5NC5CCCC5)CC4)CC3)cc2)C(=O)N1 (stereo not shown) [P-11] | 47.5% | 9.00
17 | O=C1CCC(N2C(=O)c3ccc(N4CCN(C(=O)C5CCC(NC(=O)c6cnc(Nc7ccc8ncoc8c7)cc6NC6CCCC6)CC5)CC4)cc3C2=O)C(=O)N1 (stereo not shown) [P-12] | 47.7% | –
18 | C[C@@H]1CN(c2ccc3c(c2)C(=O)N(C2CCC(=O)NC2=O)C3=O)C[C@H](C)N1C(=O)C1CCC(NC(=O)c2cnc(-n3ncc4cc(C#N)cnc43)cc2NC2CCCC2)CC1 (stereo partly shown) [P-13] | 43.4% | 7.09
19 | N#Cc1cnc2c(cnn2-c2cc(NC3CCCC3)c(C(=O)NC3CCC(C(=O)N4CCC(c5ccc6c(c5)C(=O)N(C5CCC(=O)NC5=O)C6)CC4)CC3)cn2)c1 (stereo not shown) [P-14] | 24.0% | 7.02
20 | CC(C)Nc1cc(-n2ncc3cc(C#N)cnc32)ncc1C(=O)N[C@H]1CC[C@H](CN2CCN(c3ccc4c(c3)C(=O)N(C3CCC(=O)NC3=O)C4)CC2)CC1 (stereo partly shown) [P-15] | 31.8% | 7.59
21 | N#Cc1cnc2c(cnn2-c2cc(NC3CCCC3)c(-c3cn([C@H]4CC[C@H](NC(=O)C5CCN(c6ccc7c(c6)C(=O)N(C6CCC(=O)NC6=O)C7)CC5)CC4)nn3)cn2)c1 (stereo partly shown) [P-16, N-((1r,4r)-4-(4-(6-(5-cyano-1H-pyrazolo[3,4-b]pyridin-1-yl)-4-(cyclopentylamino)pyridin-3-yl)-1H-1,2,3-triazol-1-yl)cyclohexyl)-1-(2-(2,6-dioxopiperidin-3-yl)-3-oxoisoindolin-5-yl)piperidine-4-carboxamide] | 26.9% | 7.80
22 | N#Cc1cnc2c(cnn2-c2cc(NC3CCCC3)c(C(=O)N[C@H]3CC[C@H](CN4CCN(c5ccc6c(c5)C(=O)N(C5CCC(=O)NC5=O)C6)CC4)CC3)cn2)c1 (stereo partly shown) [P-17] | 24.6% | 7.89
23 | N#Cc1cnc2c(cnn2-c2cc(NC3CCCC3)c(C(=O)N[C@H]3CC[C@H](CN4CCN(c5ccc6c(c5)C(=O)N(C5CCC(=O)NC5=O)C6=O)CC4)CC3)cn2)c1 (stereo partly shown) [P-18] | 36.9% | 7.43
24 | CN(C(=O)C1CCN(c2ccc3c(c2)C(=O)N(C2CCC(=O)NC2=O)C3)CC1)C1CCC(n2cc(-c3cnc(-n4ncc5cc(C#N)cnc54)cc3NC3CCCC3)nn2)CC1 (stereo not shown) [P-19] | 38.0% | 7.77
25 | N#Cc1cnc2c(cnn2-c2cc(NC3CCCC3)c(C(=O)NC3CCC(C(=O)Nc4ccc(C(=O)Nc5ccc(C6CCC(=O)NC6=O)cc5)cc4)CC3)cn2)c1 (stereo not shown) [P-20] | 30.9% | 5.79
26 | C[C@@H]1CN(C(=O)C2CCC(NC(=O)c3cnc(-n4ncc5cc(C#N)cnc54)cc3NC3CCCC3)CC2)CCN1c1ccc2c(c1)C(=O)N(C1CCC(=O)NC1=O)C2=O (stereo partly shown) [P-21] | 40.3% | 7.66
27 | N#Cc1cnc2c(cnn2-c2cc(NC3CC3)c(C(=O)NC3CCC(C(=O)N4CCN(c5ccc6c(c5)C(=O)N(C5CCC(=O)NC5=O)C6)CC4)CC3)cn2)c1 (stereo not shown) [P-22] | 20.0% | 5.96
28 | N#Cc1cnc2c(cnn2-c2cc(NC3CCCC3)c(C(=O)NC3CCC(CC(=O)N4CCN(c5ccc(C6CCC(=O)NC6=O)cc5)CC4)CC3)cn2)c1 (stereo not shown) [P-23] | 34.8% | 7.70
